Source: patent publication US9540330B2, “Oligomer-containing hydantoin compounds” (Nektar Therapeutics, priority 2010, dated 2017)

Columns and labels:
[1] = target: T1, cloned human hERG channel (Homo sapiens, UniProt Q12809); assay: hERG current block in HEK cells, whole-cell patch clamp; assay type: cell-based; conditions: HEK cells expressing cloned human hERG channel, 37±1° C., peak current at −40 mV; read-out: hERG (μM), IC50 for inhibition of hERG
T1 construct: expressed in transfected cells; host or cells: HEK cells
T1 sequence (Q12809 whole entry): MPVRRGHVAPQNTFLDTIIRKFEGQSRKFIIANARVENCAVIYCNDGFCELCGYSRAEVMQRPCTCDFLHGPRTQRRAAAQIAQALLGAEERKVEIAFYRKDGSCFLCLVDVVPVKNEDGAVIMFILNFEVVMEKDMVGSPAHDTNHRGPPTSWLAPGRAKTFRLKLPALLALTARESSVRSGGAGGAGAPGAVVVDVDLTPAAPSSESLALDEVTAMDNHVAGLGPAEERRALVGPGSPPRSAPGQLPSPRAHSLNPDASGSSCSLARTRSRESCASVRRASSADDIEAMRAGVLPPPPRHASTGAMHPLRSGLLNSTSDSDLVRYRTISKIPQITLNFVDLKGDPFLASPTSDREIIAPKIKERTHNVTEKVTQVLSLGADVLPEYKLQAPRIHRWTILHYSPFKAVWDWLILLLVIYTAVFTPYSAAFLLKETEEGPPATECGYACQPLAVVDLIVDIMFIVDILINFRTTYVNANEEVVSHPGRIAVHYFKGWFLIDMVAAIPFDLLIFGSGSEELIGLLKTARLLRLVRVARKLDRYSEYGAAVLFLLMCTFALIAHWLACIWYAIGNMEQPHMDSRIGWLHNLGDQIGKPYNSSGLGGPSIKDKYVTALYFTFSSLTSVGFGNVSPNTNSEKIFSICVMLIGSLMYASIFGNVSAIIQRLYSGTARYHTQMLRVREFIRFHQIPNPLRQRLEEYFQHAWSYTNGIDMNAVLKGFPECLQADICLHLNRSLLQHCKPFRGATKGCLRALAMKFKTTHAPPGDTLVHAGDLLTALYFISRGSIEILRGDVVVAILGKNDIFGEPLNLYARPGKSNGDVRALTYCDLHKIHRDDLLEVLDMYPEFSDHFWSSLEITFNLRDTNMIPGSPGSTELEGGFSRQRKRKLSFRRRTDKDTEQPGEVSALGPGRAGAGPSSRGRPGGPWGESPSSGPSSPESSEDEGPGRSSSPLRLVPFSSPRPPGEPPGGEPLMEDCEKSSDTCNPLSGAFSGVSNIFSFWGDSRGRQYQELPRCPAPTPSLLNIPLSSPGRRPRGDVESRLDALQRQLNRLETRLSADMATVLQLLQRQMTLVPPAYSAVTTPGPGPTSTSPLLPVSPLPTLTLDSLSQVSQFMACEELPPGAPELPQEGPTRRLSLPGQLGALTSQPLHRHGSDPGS
Method: Electrophysiological measurements of hERG current were made in vitro to assess the hERG block produced by the phenyloin conjugates. hERG currents were measured in HEK cells expressing the cloned human hERG channel using the whole-cell variant of the patch clamp method. Experiments were performed at 37±1° C. hERG current was elicited by a step pulse to +10 mV for 500 ms from a holding potential of −75 mV, followed by a pulse to −40 mV for 500 ms. Peak current was measured from the pulse to −40 mV. Six concentrations of each test compound were added to the cell in a cumulative manner starting with the lowest test concentration. Each cell served as its own control and data are presented as % reduction of current amplitude achieved in the presence of drug.

[2] = target: sodium channels in isolated cardiac cells (human atrial myocytes) (Homo sapiens, UniProt Q14524); assay: Sodium current (INa) block in isolated human atrial myocytes, whole-cell patch clamp; assay type: cell-based; conditions: pacing rates 0.1, 1 and 3 Hz, FIG. 2
Sequence of sodium channels in isolated cardiac cells (human atrial myocytes) (Q14524 whole entry): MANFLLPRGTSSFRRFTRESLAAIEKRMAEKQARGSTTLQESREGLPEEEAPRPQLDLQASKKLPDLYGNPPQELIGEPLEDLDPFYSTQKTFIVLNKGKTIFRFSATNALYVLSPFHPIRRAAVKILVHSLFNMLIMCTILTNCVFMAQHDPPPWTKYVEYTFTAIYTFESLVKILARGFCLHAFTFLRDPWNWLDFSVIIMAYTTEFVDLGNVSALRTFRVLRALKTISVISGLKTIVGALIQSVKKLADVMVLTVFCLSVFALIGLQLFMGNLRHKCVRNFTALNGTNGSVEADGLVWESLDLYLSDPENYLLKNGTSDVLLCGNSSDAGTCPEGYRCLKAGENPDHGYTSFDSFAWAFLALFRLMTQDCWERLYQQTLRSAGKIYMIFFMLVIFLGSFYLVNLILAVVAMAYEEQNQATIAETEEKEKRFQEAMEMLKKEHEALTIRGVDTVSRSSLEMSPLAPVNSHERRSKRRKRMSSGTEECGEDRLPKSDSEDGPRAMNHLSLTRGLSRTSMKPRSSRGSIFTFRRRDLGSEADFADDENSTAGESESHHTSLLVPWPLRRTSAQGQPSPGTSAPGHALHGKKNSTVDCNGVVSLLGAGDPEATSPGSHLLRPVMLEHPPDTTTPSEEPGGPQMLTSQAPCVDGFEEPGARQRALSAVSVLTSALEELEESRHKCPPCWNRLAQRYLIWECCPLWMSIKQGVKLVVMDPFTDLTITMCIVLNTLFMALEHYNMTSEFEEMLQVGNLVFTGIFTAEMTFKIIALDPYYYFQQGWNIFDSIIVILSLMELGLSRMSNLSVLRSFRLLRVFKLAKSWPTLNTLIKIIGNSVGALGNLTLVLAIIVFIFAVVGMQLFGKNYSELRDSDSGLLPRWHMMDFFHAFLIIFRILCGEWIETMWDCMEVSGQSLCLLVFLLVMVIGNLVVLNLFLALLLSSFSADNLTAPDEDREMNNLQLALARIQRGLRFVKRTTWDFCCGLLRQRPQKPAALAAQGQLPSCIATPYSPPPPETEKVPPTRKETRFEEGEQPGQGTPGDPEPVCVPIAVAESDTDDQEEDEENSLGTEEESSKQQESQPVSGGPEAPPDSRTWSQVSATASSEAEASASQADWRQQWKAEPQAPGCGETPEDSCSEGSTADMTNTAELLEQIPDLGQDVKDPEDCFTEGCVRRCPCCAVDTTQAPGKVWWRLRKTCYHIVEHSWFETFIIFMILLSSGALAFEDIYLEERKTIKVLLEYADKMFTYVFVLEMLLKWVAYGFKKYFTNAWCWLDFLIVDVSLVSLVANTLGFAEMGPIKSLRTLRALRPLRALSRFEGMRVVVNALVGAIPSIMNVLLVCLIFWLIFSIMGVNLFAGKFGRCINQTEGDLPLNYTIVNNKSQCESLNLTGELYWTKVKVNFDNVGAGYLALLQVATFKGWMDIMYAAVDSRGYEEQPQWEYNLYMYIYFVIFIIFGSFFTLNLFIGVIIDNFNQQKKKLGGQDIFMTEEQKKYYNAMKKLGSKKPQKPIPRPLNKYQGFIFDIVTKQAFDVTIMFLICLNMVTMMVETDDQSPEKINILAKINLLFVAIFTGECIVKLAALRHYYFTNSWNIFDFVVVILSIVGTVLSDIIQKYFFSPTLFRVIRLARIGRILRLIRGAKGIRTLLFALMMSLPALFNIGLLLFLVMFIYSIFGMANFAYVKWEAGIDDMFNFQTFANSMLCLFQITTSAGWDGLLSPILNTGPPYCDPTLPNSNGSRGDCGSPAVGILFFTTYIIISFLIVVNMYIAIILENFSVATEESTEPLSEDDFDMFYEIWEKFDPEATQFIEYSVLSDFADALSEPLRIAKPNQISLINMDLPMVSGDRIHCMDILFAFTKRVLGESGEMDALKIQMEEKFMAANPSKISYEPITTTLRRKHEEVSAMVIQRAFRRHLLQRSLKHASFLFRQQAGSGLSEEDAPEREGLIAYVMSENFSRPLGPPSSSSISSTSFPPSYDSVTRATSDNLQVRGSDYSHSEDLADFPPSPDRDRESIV
Method: Phenyloin and compounds prepared in accordance with Example 1 were evaluated in vitro to determine their ability to block sodium channels in isolated cardiac cells (human atrial myocytes) using the whole-cell patch clamp method
Human myocytes were obtained from specimens of human right atrial appendages obtained during surgery from hearts of patients undergoing cardiopulmonary bypass surgery. The procedure produced rod-shaped, ion tolerant cells which were used within 24 hours after isolation. See Crumb et al. (1995) Am J Physiol 268:H1335-H1342. […]
After rupture of the cell membrane (entering whole-cell mode), current kinetics and amplitudes were allowed to stabilize as the cell was dialyzed with internal solution and paced at 3 Hz (3-5 minutes). Sodium current (INa) was measured using a voltage pulse to −20 mV (40 ms pulse duration) from a holding potential of −80 mV. Peak inward current was measured for INa. […]
Currents and voltages were recorded with patch-clamp amplifiers (Axopatch 1-B, Axon Instruments). […] Data was presented as % reduction of current amplitude, measured as current reduction after a steady-state effect had been reached in the presence of test article relative to current amplitude before introduction of test article (control). […]

Compound `COCCOCCOCCOCCOCCN1C(=O)NC(=O)C1(c1ccccc1)c1ccccc1` [mPEG5-N-Phenytoin] has an IC50 [1] greater than 100 µM.
For `O=C1NC(=O)C(c2ccccc2)(c2ccccc2)N1` [Phenytoin, 5,5-diphenylhydantoin], the “frequency-dependence of sodium channel block (in words)” value [2] was “frequency-dependent block of sodium channels”.
`COCCOCCOCCOCCOCCOCCOCCN1C(=O)NC(=O)C1(c1ccccc1)c1ccccc1` [mPEG7-N-Phenytoin] gave an IC50 [1] greater than 100 µM.
`COCCOCCOCCOCCN1C(=O)NC(=O)C1(c1ccccc1)c1ccccc1` [mPEG4-N-Phenytoin] was tested, and the IC50 [1] was 88.9 µM.
